Counter-ions that a name gives are not always drawn.

This assay is described as follows: Antimicrobial activity assay: whole-cell MIC by broth microdilution (NCCLS M7-A6). The assay is classed as cell-based. Conditions: versus all the organisms named above (S. aureus WCUH29, S. pneumoniae 1629, S. pyogenes CN 10, E. faecalis 2, H. influenzae NEMC1, E. coli 7623, M. catarrhalis Ravasio); read-out: MIC. Here is the method:
Whole-cell antimicrobial activity was determined by broth microdilution using the National Committee for Clinical Laboratory Standards (NCCLS) recommended procedure, Document M7-A6, “Methods for Dilution Susceptibility Tests for Bacteria that Grow Aerobically”. The compounds were tested in serial two-fold dilutions ranging from 0.016 to 16 mcg/mL. Compounds were evaluated against a panel of Gram-positive organisms, including Staphylococcus aureus WCUH29, Streptococcus pneumoniae 1629, Streptococcus pyogenes CN 10, and Enterococcus faecalis 2. In addition, compounds were evaluated against a panel of Gram-negative strains including Haemophilus influenzae NEMC1, E. coli 7623, and Moraxella catarrhalis Ravasio. The minimum inhibitory concentration (MIC) was determined as the lowest concentration of compound that inhibited visible growth. A mirror reader was used to assist in determining the MIC endpoint.
Compounds of the present invention have MIC's ≦20 μg/ml versus all the organisms named above.
In general terms: Dilution methods test growth across graded concentrations, often in twofold steps.
For `COc1cc(F)c2ncc(Cl)c(CCN3CCC(NCc4cc5c(cn4)OCCO5)CC3)c2c1` [Example 161, 1-{2-[3-chloro-8-fluoro-6-(methoxy)-4-quinolinyl]ethyl}-N-(2,3-dihydro[1,4]dioxino[2,3-c]pyridin-7-ylmethyl)-4-piperidinamine], the MIC was ≤ 2 µg/mL.

As to `COc1ccc2ncc(F)c(CCN3CCC(C)(NCc4ccc5c(n4)NC(=O)CO5)CC3)c2n1.Cl.Cl` [Example 138, 6-{[(1-{2-[3-fluoro-6-(methoxy)-1,5-naphthyridin-4-yl]ethyl}-4-methyl-4-piperidinyl)amino]methyl}-2H-pyrido[3,2-b][1,4]oxazin-3(4H)-one dihydrochloride], the MIC was ≤ 2 µg/mL.

As to `Cl.Cl.O=C1CSc2ccc(CNC3CCN(CCc4c(Cl)cnc5ccc(F)cc45)CC3)nc2N1` [Example 25, 6-({1-[2-(3-Chloro-6-fluoro-quinolin-4-yl)-ethyl]-piperidin-4-ylamino}-methyl)-4H-pyrido[3,2-b][1,4]thiazin-3-one Dihydrochloride], the MIC is ≤ 2 µg/mL.

As for `COc1cc(F)c2ncc(F)c(CCN3CC[C@H](NCc4ccc5c(n4)NC(=O)CS5)[C@H](F)C3)c2c1.Cl.Cl` (single isomer, unassigned; enantiomer 1) [Example 149, cis-6-{[(-1-{2-[3,8-difluoro-6-(methoxy)-4-quinolinyl]ethyl}-3-fluoro-4-piperidinyl)amino]methyl}-2H-pyrido[3,2-b][1,4]thiazin-3(4H)-one dihydrochloride, Enantiomer 1], the MIC is ≤ 2 µg/mL.

Turning to `COc1ccc2ncc(F)c(CCN3CCC(NCc4cc5c(cn4)OCCS5)CC3)c2n1.Cl.Cl` [Example 60, N-(2,3-Dihydro[1,4]oxathiino[2,3-c]pyridin-7-ylmethyl)-1-{2-[3-fluoro-6-(methoxy)-1,5-naphthyridin-4-yl]ethyl}-4-piperidinamine dihydrochloride], the MIC is ≤ 2 µg/mL.

For `COc1ccc2ncc(F)c(CCN3CC[C@H](NCc4cnc5c(c4)NC(=O)CS5)[C@H](O)C3)c2c1.Cl.Cl` (single isomer, unassigned; enantiomer 1) [Example 96], the MIC was ≤ 2 µg/mL.

For `COc1ccc2ncc(Cl)c(CCN3CCC(NCc4ccc5c(n4)NC(=O)CS5)CC3)c2c1.Cl.Cl.Cl` [Example 13, 6-({1-[2-(3-Chloro-6-methoxyquinolin-4-yl)ethyl]piperidin-4-ylamino}methyl)-4H-pyrido[3,2-b][1,4]thiazin-3-one Trihydrochloride], the MIC was ≤ 2 µg/mL.

As to `COc1ccc2ncc(F)c(CCN3CCC(NCc4cc5c(cn4)OCCC5)CC3)c2n1.Cl.Cl` [Example 126, N-(3,4-dihydro-2H-pyrano[2,3-c]pyridin-6-ylmethyl)-1-{2-[3-fluoro-6-(methoxy)-1,5-naphthyridin-4-yl]ethyl}-4-piperidinamine dihydrochloride], the MIC is ≤ 2 µg/mL.

For `COc1ccc2ncc(Cl)c(CCN3CC[C@H](NCc4ccc5c(n4)NC(=O)CO5)[C@H](O)C3)c2c1` (single isomer, unassigned; enantiomer 2) [Example 6, 6-({(cis)-1-[2-(3-Chloro-6-methoxy-quinolin-4-yl)-ethyl]-3-hydroxy-piperidin-4-ylamino}-methyl)-4H-pyrido[3,2-b][1,4]oxazin-3-one Dihydrochloride Enantiomer 2], the MIC was ≤ 2 µg/mL.

For `COc1ccc2ncc(F)c(CCN3CCC(C)(NC(=O)c4ccc5c(n4)NC(=O)CO5)CC3)c2n1` [Example 167, N-(1-{2-[3-fluoro-6-(methoxy)-1,5-naphthyridin-4-yl]ethyl}-4-methyl-4-piperidinyl)-3-oxo-3,4-dihydro-2H-pyrido[3,2-b][1,4]oxazine-6-carboxamide], the MIC is ≤ 2 µg/mL.

`COc1ccc2ncc(F)c(CCN3CCC(NC(=O)c4ccc5c(n4)NC(=O)CO5)CC3)c2c1.Cl` [Example 94, N-(1-{2-[3-fluoro-6-(methoxy)-4-quinolinyl]ethyl}-4-piperidinyl)-3-oxo-3,4-dihydro-2H-pyrido[3,2-b][1,4]oxazine-6-carboxamide hydrochloride]: the MIC is ≤ 2 µg/mL.

Regarding `COc1ccc2ncc(F)c(CCN3CCC(NCc4cc5c(cn4)OCCO5)CC3)c2c1.Cl.Cl` [Example 32, {1-[2-(3-Fluoro-6-methoxy-quinolin-4-yl)-ethyl]-piperidin-4-yl}-(2,3-dihydro-[1,4]dioxino[2,3-c]pyridin-7-ylmethyl)-amine dihydrochloride], the MIC is ≤ 2 µg/mL.

Regarding `Cl.Cl.O=C1CSc2ccc(CNC3CCN(CCc4c(F)cnc5ccc(F)cc45)CC3)nc2N1` [Example 106, 6-[({1-[2-(3,6-difluoro-4-quinolinyl)ethyl]-4-piperidinyl}amino)methyl]-2H-pyrido[3,2-b][1,4]thiazin-3(4H)-one dihydrochloride], the MIC was ≤ 2 µg/mL.

Take `COc1ccc2ncc(F)c(CCN3CCC(NCc4cnc5c(c4)OCCO5)CC3)c2c1.Cl.Cl` [Example 85, N-(2,3-dihydro[1,4]dioxino[2,3-b]pyridin-7-ylmethyl)-1-(2-[3-fluoro-6-(methoxy)-4-quinolinyl]ethyl}-4-piperidinamine dihydrochloride]: the MIC is ≤ 2 µg/mL.

As for `COc1ccc2ncc(Cl)c(CCN3CC[C@H](NCc4ccc5c(n4)NC(=O)CS5)[C@H](O)C3)c2n1.Cl.Cl` (single isomer, unassigned; enantiomer 1) [Example 11, 6-({(cis)-1-[2-(3-Chloro-6-methoxy-[1,5]naphthyridin-4-yl)-ethyl]-3-hydroxy-piperidin-4-ylamino}-methyl)-4H-pyrido[3,2-b][1,4]thiazin-3-one Dihydrochloride Enantiomer 1], the MIC was ≤ 2 µg/mL.

For `COc1cc(F)c2ncc(Cl)c(CCN3CC[C@H](NCc4cc5c(cn4)OCCO5)[C@H](O)C3)c2c1.Cl.Cl` [Example 98, (3R,4S)-1-{2-[3-chloro-8-fluoro-6-(methoxy)-4-quinolinyl]ethyl}-4-[(2,3-dihydro[1,4]dioxino[2,3-c]pyridin-7-ylmethyl)amino]-3-piperidinol dihydrochloride], the MIC was ≤ 2 µg/mL.

Turning to `COc1ccc2ncc(F)c(CCN3CC[C@@H](NCc4cc5c(cn4)OCCO5)[C@@H](O)C3)c2n1.Cl.Cl` (single isomer, unassigned; enantiomer 2) [Example 158], the MIC was ≤ 2 µg/mL.

In the case of `COc1ccc2ncc(F)c(CCN3CCC(NCc4cnc5c(c4)NC(=O)CS5)CC3)c2c1.Cl.Cl` [Example 84, 7-{[(1-{2-[3-fluoro-6-(methoxy)-4-quinolinyl]ethyl}-4-piperidinyl)amino]methyl}1H-pyrido[2,3-b][1,4]thiazin-2(3H)-one dihydrochloride], the MIC was ≤ 2 µg/mL.

In the case of `COc1ccc2ncc(F)c(C(O)CN3CCC(NCc4cc5c(cn4)OCCO5)CC3)c2n1.Cl.Cl.O` (single isomer, unassigned; enantiomer 2) [Example 100, 2-{4-[(2,3-Dihydro[1,4]dioxino[2,3-c]pyridin-7-ylmethyl)amino]-1-piperidinyl}-1-[3-fluoro-6-(methoxy)-1,5-naphthyridin-4-yl]ethanol Dihydrochloride Hydrate Enantiomer 2], the MIC is ≤ 2 µg/mL.

For `COc1ccc2ncc(Cl)c(CCN3CC[C@H](NCc4ccc5c(n4)NC(=O)CO5)[C@H](O)C3)c2c1.Cl.Cl` (single isomer, unassigned; enantiomer 1) [Example 5, 6-({(cis)-1-[2-(3-Chloro-6-methoxy-quinolin-4-yl)-ethyl]-3-hydroxy-piperidin-4-ylamino}-methyl)-4H-pyrido[3,2-b][1,4]oxazin-3-one Dihydrochloride Enantiomer 1], the MIC is ≤ 2 µg/mL.

With `COc1ccc2ncc(F)c(CCN3CCC(CO)(NC(=O)c4ccc5c(n4)NC(=O)CS5)CC3)c2n1.Cl` [Example 93, N-[1-{2-[3-fluoro-6-(methoxy)-1,5-naphthyridin-4-yl]ethyl}-4-(hydroxymethyl)-4-piperidinyl]-3-oxo-3,4-dihydro-2H-pyrido[3,2-b][1,4]thiazine-6-carboxamide hydrochloride], the MIC is ≤ 2 µg/mL.

Consider `COc1cc(F)c2ncc(F)c(CCN3CC[C@H](NCc4ccc5c(c4)OCCO5)[C@H](F)C3)c2c1.Cl.Cl` (single isomer, unassigned; enantiomer 1) [Example 147, cis-1-{2-[3,8-difluoro-6-(methoxy)-4-quinolinyl]ethyl}-N-(2,3-dihydro-1,4-benzodioxin-6-ylmethyl)-3-fluoro-4-piperidinamine dihydrochloride, Enantiomer 1], for which the MIC was ≤ 2 µg/mL.

For `COc1cc(F)c2ncc(Cl)c(CCN3CC[C@H](NCc4ccc5c(n4)NC(=O)CS5)[C@H](O)C3)c2c1.Cl.Cl` (single isomer, unassigned; enantiomer 1) [Example 97], the MIC was ≤ 2 µg/mL.

Take `COc1ccc2ncc(F)c(CCN3CCC(NCc4ccc5c(n4)NC(=O)CS5)CC3)c2c1.Cl.Cl` [Example 31, 6-({1-[2-(3-Fluoro-6-methoxyquinolin-4-yl)ethyl]piperidin-4-ylamino}methyl)-4H-pyrido[3,2-b][1,4]thiazin-3-one dihydrochloride]: the MIC is ≤ 2 µg/mL.

With `COc1c(F)ccc2ncc(Cl)c(CCN3CCC(NCc4ccc5c(n4)NC(=O)CS5)CC3)c12.Cl.Cl` [Example 22, 6-({1-[2-(3-Chloro-6-fluoro-5-methoxy-quinolin-4-yl)-ethyl]-piperidin-4-ylamino}-methyl)-4H-pyrido[3,2-b][1,4]thiazin-3-one Dihydrochloride], the MIC is ≤ 2 µg/mL.

For the origin of these results see patent US20060041123A1, “Antibacterial agents” (priority 2002, published 2006).
